One data set relates to SWV/Finn mice. The following applies: cited from earlier work.
Data set [1] relates to pyruvate oxidation of isolated rat liver mitochondria. The data set can be described thus: ADP-stimulated pyruvate oxidation of isolated rat liver mitochondria (high-resolution respirometry). Format: biochemical.
For data set [2], the system named is 2-oxoglutarate oxidation of isolated rat liver mitochondria. Briefly: ADP-stimulated 2-oxoglutarate oxidation of rat liver mitochondria. Format: biochemical. The following applies: 3 min preincubation with 1 mM ATP, 5 mM MgCl2, 10 mM 2-oxoglutarate, 1 mM ADP, read-out: Apparent IC50 of inhibition of 2-oxoglutarate oxidation.
Data set [3] deals with glutamate oxidation of isolated rat liver mitochondria. The data set can be described thus: ADP-stimulated glutamate (+ malate) oxidation of rat liver mitochondria. Format: biochemical. The following applies: 3 min preincubation with 1 mM ATP, 5 mM MgCl2, 10 mM glutamate, 5 mM malate, 1 mM ADP, read-out: Apparent IC50 of inhibition of glutamate oxidation.
Data set [4] has as its target T1, α-lipoamide dehydrogenase (Rattus norvegicus, UniProt Q6P6R2).
T1 construct: After 3 min incubation of rat liver mitochondria (0.3 mg protein/mL) in MTP medium; from tissue; host or cells: liver mitochondria of Wistar rat
T1 sequence (Q6P6R2 36-509): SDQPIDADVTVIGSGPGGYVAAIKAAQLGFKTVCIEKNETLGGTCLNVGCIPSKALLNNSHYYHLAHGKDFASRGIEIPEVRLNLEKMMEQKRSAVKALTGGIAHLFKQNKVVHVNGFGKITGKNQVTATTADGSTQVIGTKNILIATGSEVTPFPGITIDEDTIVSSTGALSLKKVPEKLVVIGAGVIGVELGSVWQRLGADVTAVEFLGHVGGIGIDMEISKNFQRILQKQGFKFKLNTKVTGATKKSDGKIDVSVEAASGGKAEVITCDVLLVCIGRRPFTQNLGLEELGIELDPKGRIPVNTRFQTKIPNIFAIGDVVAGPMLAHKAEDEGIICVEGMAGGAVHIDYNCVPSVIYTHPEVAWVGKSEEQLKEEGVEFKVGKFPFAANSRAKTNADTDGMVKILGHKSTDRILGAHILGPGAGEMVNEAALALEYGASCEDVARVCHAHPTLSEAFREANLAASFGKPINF
The data set can be described thus: α-lipoamide dehydrogenase activity in intact mitochondria (re-reduction of NAD(P)+ after α-lipoamide, NAD(P)H fluorescence). Format: biochemical. To be noted: for pIC50: read-out: Apparent IC50 of inhibition of α-lipoamide dehydrogenase; for inhibition of α-lipoamide dehydrogenase (in words): rat liver mitochondria, abstract summary.

For another data set, the system named is epilepsy model. The following applies: racemate; dependent on the epilepsy model; cited from earlier work.
The test system of data set [5] is pilocarpine-induced status epilepticus (SE). The following applies: cited from earlier work; for protection against pilocarpine-induced status epilepticus: rat.
The conditions of data set [6]: cited from earlier work.
A further data set has as its target T2, pyruvate dehydrogenase (Rattus norvegicus, UniProt P26284+P49432).
T2 construct: the mitochondrial suspension (0.3 mg protein) was placed into a 0.5 mL spectrophotometric cuvette; from tissue; host or cells: liver mitochondria of Wistar rat, solubilised with 0.1% N-dodecyl-β-D-maltoside
T2 sequence (P26284 30-390): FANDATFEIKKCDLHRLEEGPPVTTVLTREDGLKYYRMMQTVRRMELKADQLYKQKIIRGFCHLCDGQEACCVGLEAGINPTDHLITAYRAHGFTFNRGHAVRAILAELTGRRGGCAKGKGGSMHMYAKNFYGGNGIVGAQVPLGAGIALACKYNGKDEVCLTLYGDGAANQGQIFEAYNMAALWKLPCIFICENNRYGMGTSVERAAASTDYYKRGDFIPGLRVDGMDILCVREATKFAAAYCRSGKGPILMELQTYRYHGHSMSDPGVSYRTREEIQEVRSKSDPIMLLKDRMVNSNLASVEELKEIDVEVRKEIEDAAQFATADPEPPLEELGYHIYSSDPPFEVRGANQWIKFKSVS
T2 sequence (P49432 31-359): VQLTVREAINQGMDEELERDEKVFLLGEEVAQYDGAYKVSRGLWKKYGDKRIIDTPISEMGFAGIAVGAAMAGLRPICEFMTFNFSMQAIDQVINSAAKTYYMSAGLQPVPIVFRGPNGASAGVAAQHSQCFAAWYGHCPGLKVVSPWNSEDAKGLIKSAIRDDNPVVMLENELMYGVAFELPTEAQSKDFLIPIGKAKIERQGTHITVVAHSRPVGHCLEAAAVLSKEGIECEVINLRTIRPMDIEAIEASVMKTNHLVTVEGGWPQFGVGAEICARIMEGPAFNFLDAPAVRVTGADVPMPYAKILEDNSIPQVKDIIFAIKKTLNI
The data set can be described thus: pyruvate dehydrogenase (PDH) activity of isolated rat liver mitochondria. Format: biochemical. The following applies: preincubation with 10 mM VPA and 1 mM ATP; excess α-lipoamide dehydrogenase. The method, then:
(§1) (A) The plotted pyruvate dehydrogenase (PDH) activities are averages of three independent experiments; (B) Swelling of mitochondria in 0.1 M ammonium pyruvate buffer. One representative experiment (out of 3) is shown. […] Experimental conditions as described in Materials and Methods.
PDH activity in this suspension was determined according to Scislowski and Davis with the following modifications: the mitochondrial suspension (0.3 mg protein) was placed into a 0.5 mL spectrophotometric cuvette, containing 0.1 M potassium phosphate buffer (pH 7.4), 5 mM MgCl2, 3 mM NAD^+, 0.1 mM CoASH, 2 mM dithiothreitol, 0.1% N-dodecyl-β-D-maltoside, 0.4 mM thiamine pyrophosphate, 20 µg/mL diaphorase (Boehringer Mannheim, Mannheim, Germany), and 10 mM pyruvate. PDH activity was measured at 30 °C using a spectrophotometer (Aminco DW 2000, SLM Instruments, Urbana, IL, USA) with 340–380 nm dual wavelength photometry.

The subject of data set [7] is pyruvate transport of rat liver mitochondria. The data set can be described thus: pyruvate transport: pyruvate-dependent swelling of mitochondria in ammonium pyruvate. Format: biochemical. To be noted: 1 mM compound; rat liver mitochondria in 0.1 M ammonium pyruvate. The method, then: as §1
For pyruvate transport determinations, the mitochondrial suspension (0.6–0.7 mg protein) was placed into a 3 mL spectrophotometric cuvette, containing 5 mM MgCl2, 2 µM rotenone, 1.5 µg/mL antimycin, and 0.1 M ammonium pyruvate (obtained from ammonium hydroxide and pyruvic acid). When indicated, 1 mM cinnamate was added. Mitochondrial swelling was estimated at 30 °C using a spectrophotometer (Aminco DW 2000, SLM Instruments) at 546 nm.

The conditions of data set [8]: patients with epilepsy; cited from earlier work.
Setting [9] is: SWV/Finn mice, strain highly susceptible to VPA-induced teratogenicity.
Where [10] appears, read: isolated rat liver mitochondria, 3 min preincubation with drug, 1 mM ATP, 5 mM MgCl2, 10 mM pyruvate, 5 mM malate, ADP, read-out: Apparent IC50 of inhibition of pyruvate oxidation.
Where [11] appears, read: isolated rat liver mitochondria, pyruvate-dependent reduction of NAD(P)+, estimated value.

pIC50: −log10 of the molar value. Where two headings read alike, the source gives them in different places.

As to `CC[C@H](C)[C@@H](CC)C(N)=O` [(2R,3S)-VCD], the teratogenic effects result with SWV/Finn mice (setting [9]) is on record as “did not show any significant teratogenic effects”.

For `CC[C@H](C(N)=O)[C@@H](C)CC` [(2S,3S)-VCD], in the data set with SWV/Finn mice (setting [9]), the teratogenic effects entry is “did not show any significant teratogenic effects”.

By pIC50 is commonly meant −log10 of the IC50, conventionally taken in molar units. Take `CCCC(C(=O)O)C(C)CC` (stereo not drawn) [SPA, sec-Butylpropylacetic acid]: the pIC50 was 4.30 in data set [1] (setting [10]); 4.30 in [2]; 2.70 in [3]; 4.00 in data set [4] ([…], pyruvate-dependent reduction of NAD(P)+ after 75 µM α-lipoamide, preincubation with 1 mM ATP). Further, the “inhibition of α-lipoamide dehydrogenase (in words)” value (shortened to “inhibition … (in words)”) in [4] is “Strong inhibition”.

Regarding `CCCC(C(N)=O)C(C)CC` (stereo not drawn) [SPD, sec-Butylpropylacetamide], the pIC50 in data set [1] (setting [10]) was 2.52; in data set [2], 3.00; in [3], 2.70; in data set [4] ([…], pyruvate-dependent reduction of NAD(P)+, estimated value), < 3.00. Also, the “inhibition … (in words)” value in [4] is reported as “only small effects”.

Take `CCC(C)C(CC)C(N)=O` (stereo not drawn) [VCD, Valnoctamide]: the “anticonvulsant activity: concentrations lower than VPA” value in the data set with epilepsy model was 2–16 times. For the same molecule, in the data set with SWV/Finn mice (setting [9]), the teratogenic effects result was “did not show any significant teratogenic effects”. In data set [5] (180 mg/kg), the “block of pilocarpine-induced electrographic SE” value is recorded as “did block”. The “protection against pilocarpine-induced status epilepticus” value in data set [5] (65 mg/kg intraperitoneally at seizure onset) is on record as “protected”; in [5] (80 mg/kg 30 min after seizure onset), “protection was lost”. Also, in data set [6] (in vivo), the “biotransformation to the corresponding acid” value is “low biotransformation”. Also, the pIC50 in data set [4] (setting [11]) is < 3.00. Further, the “inhibition … (in words)” value in data set [4] was “only small effects”.

As to `CCCC(CCC)C(=O)O` [VPA, Valproic acid], the pIC50 was ~4.30 in data set [1] (isolated rat liver mitochondria, 3 min preincubation with drug, 1 mM ATP, 5 mM MgCl2, 10 mM pyruvate, 5 mM malate, ADP, listed as valproic acid, read-out: Apparent IC50 of inhibition of pyruvate oxidation); 4.30 in [1] (setting [10]); 4.30 in data set [2]; 2.00 in [3]; 4.10 in data set [4] (isolated rat liver mitochondria, pyruvate-dependent reduction of NAD(P)+ after 75 µM α-lipoamide, preincubation with 1 mM ATP). Moreover, the “effect on pyruvate dehydrogenation velocity (PDH activity)” value at pyruvate dehydrogenase is given as “slight increase”. Further, the “effect on pyruvate-dependent swelling velocity (pyruvate transport)” value in data set [7] is listed as “no effect”. Also, the therapeutic blood levels in data set [8] is 40 to 100 mg/L. In addition, the “pyruvate-dependent re-reduction of NAD(P)+ after α-lipoamide” value in data set [4] (0.5 and 1 mM VPA) is recorded as “strongly inhibited”. Moreover, the “glutamate-dependent re-reduction of NAD(P)+ after α-lipoamide” value in data set [4] (glutamate as substrate) is listed as “no effects”. The “inhibition … (in words)” value in [4] is listed as “strongly inhibited”.

With `CCCC(CCC)C(N)=O` [VPD, Valpromide], the pIC50 in [1] (setting [10]) is 2.30; in data set [2], 2.10; in data set [3] it was 2.52; in data set [4] (setting [11]) it was < 3.00. Further, the “biotransformation to the corresponding acid” value in [6] (humans) is given as “rapid transformation to VPA”. Further, the “inhibition … (in words)” value in data set [4] is recorded as “only small effects”.

For the molecule `O=[As][O-].[Na+]` [arsenite], the “inhibition of DLDH activity” value in data set [4] is reported as “complete inhibition”.

Consider `O=C(O)/C=C/c1ccccc1` [cinnamate], for which the “effect on pyruvate-dependent swelling velocity (pyruvate transport)” value in [7] is on record as “clearly inhibited”.

With Valnoctic acid [VCA], the pIC50 in [1] (both substrates summarised together, preincubated in the presence of ATP, read-out: IC50 of inhibition of pyruvate and 2-oxoglutarate oxidation rates of liver mitochondria) is 3.05 to 3.70; in data set [1] (setting [10]) it was 3.05; in [2], 3.70; in data set [3], 2.70; in data set [4], 3.52. Further, in the data set on SWV/Finn mice (mouse, in vivo), the teratogenic effects entry is “did not show any significant teratogenic effects”.

(Values after publication PMC5618561 (International Journal of Molecular Sciences, 2017).)
